Experimental data: PMC10816276 (International Journal of Molecular Sciences, 2024)

Experiments:
[1] = biological target: T1, Mushroom tyrosinase (mTyr) (Agaricus bisporus, UniProt C7FF04); assay: HPLC analysis of oxidation of L-DOPA catalyzed by mTyr; format: biochemical; details: 2 μg·mL^−1 inhibitor, 0.5 mM L-DOPA, 31.25 U·mL^−1 mTyr, 30 °C, 0-30 min
T1 construct: purchased Sigma-Aldrich
Experimental: The inhibitory effect of 6′-O-caffeoylarbutin on the oxidation of L-DOPA catalyzed by mTyr was studied using Agilent 1200 series HPLC analysis (Palo Alto, CA, USA), with minor modifications to the previous procedure. The experiment was conducted with 0.5 mM L-DOPA as a diphenolase substrate for 31.25 U·mL^−1 mTyr in the absence of an inhibitor. Subsequently, 2 μg·mL^−1 of 6′-O-caffeoylarbutin was added, and the reaction mixture was incubated for 0, 15, and 30 min at 30 °C. Samples (10 μL) were injected after filtration onto the HPLC system equipped with a Capcell pak C18 column (250 × 4.6 mm, 5 μm, Shiseido, Tokyo, Japan) operating at a flow rate of 1.0 mL·min^−1. The column temperature maintained at 30 °C and the detection wavelength was set at 280 nm. The mobile phase was consisted of water (A) and methanol (B), and a gradient elution employed with the following linear gradient for solvent B: 5% (0 min), 20% (10 min), 50% (20 min), 80% (25 min), and 100% (35 min).

[2] = biological target: T1, Mushroom tyrosinase (mTyr); details: substrate L-DOPA; previous experiments; Liu et al., 2023; read-out: IC50, diphenolase activity of mTyr; cited from earlier work

T1 sequence (C7FF04 1-392): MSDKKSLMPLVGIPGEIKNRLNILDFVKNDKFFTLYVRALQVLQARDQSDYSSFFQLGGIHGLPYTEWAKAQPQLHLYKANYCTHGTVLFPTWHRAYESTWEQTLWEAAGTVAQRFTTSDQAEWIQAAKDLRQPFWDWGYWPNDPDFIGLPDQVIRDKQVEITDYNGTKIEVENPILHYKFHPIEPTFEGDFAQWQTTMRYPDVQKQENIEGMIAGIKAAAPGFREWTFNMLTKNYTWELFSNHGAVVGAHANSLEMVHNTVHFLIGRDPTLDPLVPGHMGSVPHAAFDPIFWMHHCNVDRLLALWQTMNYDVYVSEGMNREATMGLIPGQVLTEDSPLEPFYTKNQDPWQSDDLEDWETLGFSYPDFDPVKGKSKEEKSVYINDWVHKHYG

O=C(C=Cc1ccc(O)c(O)c1)OCC1OC(Oc2ccc(O)cc2)C(O)C(O)C1O (centres unmarked) [6′-O-caffeoylarbutin]
oxidation products of L-DOPA (HPLC) [1]: significantly decrease
IC50 [2]: 95.2 µM
